# Key:
# aorta of rat = test: Blood vessel stimulus and precipitation at administration site (Test example 2); type: in vivo
# Procedure: Saline, a solution in saline to which 0.1% of Tween80 was added, and a solution in saline to which 0.5, 1.0, 2.0 or 3.0% of β-cyclodextrin sulfobutyl ether sodium salt dissolving various concentrations described in Table 2 below of SUN N8075 were prepared, and administered to aorta of rat, and precipitation of SUN N8075 and presence of stimulus (blood vessel stimulus) on tissues at the site of administration were evaluated.
# [1] = Stability test based on difference of pH buffer, 6 months (Test example 4); type: physicochemical; set-up: key to Insoluble materials: ◯ means absence of insoluble matters; X: × means presence of insoluble matters
# Procedure: According to experimental formulations and target pH shown in Table 4 below, liquid preparations were prepared in the following manner.
# After filtering this solution under reduced pressure, 20 mL of this solution was filled into a brown ampule subjected to inner wall treatment by SiO2 glass film (Silicoat ampule; brown 20 mL-volume; available from FUJI GLASS CO., LTD.), and then the ampule was sealed. Using high-pressure steam sterilizer (autoclave), the ampule was autoclaved in a setting condition: 121° C./24 minutes.
# The samples were stored at 5° C., 25° C./60% relative humidity (RH), […] were evaluated in time series until a lapse of 6 months, after evaluating presence/absence of insoluble foreign matters after autoclave sterilization. For evaluation of insoluble foreign matters, an appearance checker was used and observation was conducted under 1,000 Lux. […]
# Likewise the foregoing (1) liquid preparation with acetic acid buffer system (for pH adjustment, 1 mol/L or 0.1 mol/L hydrochloric acid was used), each sample was prepared according to the experimental formulations and target pH shown in Table 4 below, and each sample was stored at 5° C., 25° C./60% relative humidity (RH), […] were evaluated in time-series until a lapse of 6 months, after evaluating presence/absence of insoluble foreign matters after autoclave sterilization. […]
# [2] = 0.1% Tween80 in saline, drug conc. 0.23 mg/mL, 72 hour
# [3] = 0.1% Tween80 in saline, drug conc. 0.7 mg/mL, 72 hour
# [4] = 0.5% Captisol in saline, drug conc. 0.7 mg/mL, 24 hour
# [5] = 1.0% Captisol in saline, drug conc. 0.7 mg/mL, 24 hour
# [6] = 2.0% Captisol in saline, drug conc. 0.7 mg/mL, 24 hour
# [7] = 3.0% Captisol in saline, drug conc. 0.23 mg/mL, 72 hour
# [8] = 3.0% Captisol in saline, drug conc. 0.7 mg/mL, 72 hour
# [9] = no solubilizing agent in saline, drug conc. 0.23 mg/mL, 72 hour
# [10] = no solubilizing agent in saline, drug conc. 0.7 mg/mL, 72 hour
# [11] = no solubilizing agent in saline, drug conc. 2.3 mg/mL, 72 hour
# [12] = acetic acid/sodium acetate buffer, Captisol 10.0%, pH at preparation 3.8 (Table 4 no. 3), 40° C./75% RH/6 months
# [13] = acetic acid/sodium acetate buffer, Captisol 10.0%, pH at preparation 4.2 (Table 4 no. 4), 40° C./75% RH/6 months
# [14] = glycine buffer, Captisol 7.5%, pH at preparation 3.8 (Table 4 no. 5), 40° C./75% RH/6 months
# [15] = glycine buffer, Captisol 7.5%, pH at preparation 4.2 (Table 4 no. 6), 40° C./75% RH/6 months
# [16] = glycine buffer, Captisol 10.0%, pH at preparation 3.8 (Table 4 no. 7), 40° C./75% RH/6 months
# [17] = glycine buffer, Captisol 10.0%, pH at preparation 4.2 (Table 4 no. 8), 40° C./75% RH/6 months
compound,measurement,setting,value
"Cc1cc(OC[C@@H](O)CN2CCN(c3ccc(Cc4ccc(F)cc4)cc3)CC2)c(C)c(C)c1N [SUN N8075, (2S)-1-(4-amino-2,3,5-trimethylphenoxy)-3-{4-[4-(4-fluorobenzyl)phenyl]-1-piperazinyl}-2-propanol dimethane sulfonate]",Blood vessel stimulation,aorta of rat; [2],Detected
same,Precipitation at administration site,aorta of rat; [2],None*^2
same,Blood vessel stimulation,aorta of rat; [3],Detected
same,Precipitation at administration site,aorta of rat; [3],None*^2
same,Blood vessel stimulation,aorta of rat; [4],None
same,Precipitation at administration site,aorta of rat; [4],None*^2
same,Blood vessel stimulation,aorta of rat; [5],None
same,Precipitation at administration site,aorta of rat; [5],None*^2
same,Blood vessel stimulation,aorta of rat; [6],None
same,Precipitation at administration site,aorta of rat; [6],None*^2
same,Blood vessel stimulation,aorta of rat; [7],None
same,Precipitation at administration site,aorta of rat; [7],None*^2
same,Blood vessel stimulation,aorta of rat; [8],None
same,Precipitation at administration site,aorta of rat; [8],None*^2
same,Blood vessel stimulation,aorta of rat; [9],Detected
same,Precipitation at administration site,aorta of rat; [9],Detected*^1
same,Blood vessel stimulation,aorta of rat; [10],Detected
same,Precipitation at administration site,aorta of rat; [10],Detected*^1
same,Blood vessel stimulation,aorta of rat; [11],Detected
same,Precipitation at administration site,aorta of rat; [11],Detected*^1
same,Insoluble materials,"[1]; acetic acid/sodium acetate buffer, Captisol 7.5%, pH at preparation 3.8 (Table 4 no. 1), 5° C./6 months",◯
same,Storage period at which generation of insoluble matters was observed,"[1]; acetic acid/sodium acetate buffer, Captisol 7.5%, pH at preparation 3.8 (Table 4 no. 1), 25° C./60% RH",(6 months)
same,Insoluble materials,"[1]; acetic acid/sodium acetate buffer, Captisol 7.5%, pH at preparation 3.8 (Table 4 no. 1), 25° C./60% RH/6 months",X
same,Insoluble materials,"[1]; acetic acid/sodium acetate buffer, Captisol 7.5%, pH at preparation 3.8 (Table 4 no. 1), 40° C./60% RH/6 months",◯
same,pH,"[1]; acetic acid/sodium acetate buffer, Captisol 7.5%, pH at preparation 3.8 (Table 4 no. 1), 40° C./75% RH/6 months",2.74
same,Insoluble materials,"[1]; acetic acid/sodium acetate buffer, Captisol 7.5%, pH at preparation 3.8 (Table 4 no. 1), just after autoclave sterilization",◯
same,Insoluble materials,"[1]; acetic acid/sodium acetate buffer, Captisol 7.5%, pH at preparation 4.2 (Table 4 no. 2), 5° C./6 months",◯
same,Insoluble materials,"[1]; acetic acid/sodium acetate buffer, Captisol 7.5%, pH at preparation 4.2 (Table 4 no. 2), 25° C./60% RH/6 months",◯
same,Storage period at which generation of insoluble matters was observed,"[1]; acetic acid/sodium acetate buffer, Captisol 7.5%, pH at preparation 4.2 (Table 4 no. 2), 40° C./60% RH",(3 months)
same,Insoluble materials,"[1]; acetic acid/sodium acetate buffer, Captisol 7.5%, pH at preparation 4.2 (Table 4 no. 2), 40° C./60% RH/6 months",X
same,pH,"[1]; acetic acid/sodium acetate buffer, Captisol 7.5%, pH at preparation 4.2 (Table 4 no. 2), 40° C./75% RH/6 months",2.96
same,Insoluble materials,"[1]; acetic acid/sodium acetate buffer, Captisol 7.5%, pH at preparation 4.2 (Table 4 no. 2), just after autoclave sterilization",◯
same,Insoluble materials,"[1]; acetic acid/sodium acetate buffer, Captisol 10.0%, pH at preparation 3.8 (Table 4 no. 3), 5° C./6 months",◯
same,Insoluble materials,"[1]; acetic acid/sodium acetate buffer, Captisol 10.0%, pH at preparation 3.8 (Table 4 no. 3), 25° C./60% RH/6 months",◯
same,Insoluble materials,[1]; [12],◯
same,pH,[1]; [12],2.60
same,Insoluble materials,"[1]; acetic acid/sodium acetate buffer, Captisol 10.0%, pH at preparation 3.8 (Table 4 no. 3), just after autoclave sterilization",◯
same,Insoluble materials,"[1]; acetic acid/sodium acetate buffer, Captisol 10.0%, pH at preparation 4.2 (Table 4 no. 4), 5° C./6 months",◯
same,Insoluble materials,"[1]; acetic acid/sodium acetate buffer, Captisol 10.0%, pH at preparation 4.2 (Table 4 no. 4), 25° C./60% RH/6 months",◯
same,Insoluble materials,[1]; [13],◯
same,pH,[1]; [13],2.82
same,Insoluble materials,"[1]; acetic acid/sodium acetate buffer, Captisol 10.0%, pH at preparation 4.2 (Table 4 no. 4), just after autoclave sterilization",◯
same,Insoluble materials,"[1]; glycine buffer, Captisol 7.5%, pH at preparation 3.8 (Table 4 no. 5), 5° C./6 months",◯
same,Insoluble materials,"[1]; glycine buffer, Captisol 7.5%, pH at preparation 3.8 (Table 4 no. 5), 25° C./60% RH/6 months",◯
same,Insoluble materials,[1]; [14],◯
same,pH,[1]; [14],3.46
same,Insoluble materials,"[1]; glycine buffer, Captisol 7.5%, pH at preparation 3.8 (Table 4 no. 5), just after autoclave sterilization",◯
same,Insoluble materials,"[1]; glycine buffer, Captisol 7.5%, pH at preparation 4.2 (Table 4 no. 6), 5° C./6 months",◯
same,Insoluble materials,"[1]; glycine buffer, Captisol 7.5%, pH at preparation 4.2 (Table 4 no. 6), 25° C./60% RH/6 months",◯
same,Insoluble materials,[1]; [15],◯
same,pH,[1]; [15],3.73
same,Insoluble materials,"[1]; glycine buffer, Captisol 7.5%, pH at preparation 4.2 (Table 4 no. 6), just after autoclave sterilization",◯
same,Insoluble materials,"[1]; glycine buffer, Captisol 10.0%, pH at preparation 3.8 (Table 4 no. 7), 5° C./6 months",◯
same,Insoluble materials,"[1]; glycine buffer, Captisol 10.0%, pH at preparation 3.8 (Table 4 no. 7), 25° C./60% RH/6 months",◯
same,Insoluble materials,[1]; [16],◯
same,pH,[1]; [16],3.49
same,Insoluble materials,"[1]; glycine buffer, Captisol 10.0%, pH at preparation 3.8 (Table 4 no. 7), just after autoclave sterilization",◯
same,Insoluble materials,"[1]; glycine buffer, Captisol 10.0%, pH at preparation 4.2 (Table 4 no. 8), 5° C./6 months",◯
same,Insoluble materials,"[1]; glycine buffer, Captisol 10.0%, pH at preparation 4.2 (Table 4 no. 8), 25° C./60% RH/6 months",◯
same,Insoluble materials,[1]; [17],◯
same,pH,[1]; [17],3.74
same,Insoluble materials,"[1]; glycine buffer, Captisol 10.0%, pH at preparation 4.2 (Table 4 no. 8), just after autoclave sterilization",◯

# Reference: patent publication US20100004267A1, “LIQUID PREPARATION” (ASUBIO PHARMA CO., LTD., priority 2006, published 2010)
